The nature of series [1]: in vitro. As to conditions: human.
Another series is described as follows: in vivo. As to conditions: male, CD-1, mouse, po, 50 mg/kg.
The nature of series [2]: Pharmacokinetic evaluation in mice. The settings on record: male, CD-1, mouse, in vivo, po, 50 mg/kg.
The subject of series [3] is respiratory syncytial virus (RSV). The experiment in a line: Cytopathic effect (CPE) assay, RSV in HEp-2. As to conditions: human respiratory syncytial virus, HEp-2 cells. The class given is cell-based.
Series [4] deals with 2019 novel coronavirus (SARS-CoV-2). The experiment in a line: microbe, parasite or virus in culture. The class given is cell-based. As to conditions: Vero E6 cells, 24 h p.i.; for inhibition at 5 µM: Severe acute respiratory syndrome coronavirus 2, Vero C1008, 24 h, read-out: Inhibition Rate (5 μM); for pEC50: Severe acute respiratory syndrome coronavirus 2, Vero C1008, read-out: EC50.

In series [5] the test system is porcine epidemic diarrhea virus (PEDV). The experiment in a line: Anti-porcine epidemic diarrhea virus (PEDV) activity test in Vero cells, fluorescence quantitative PCR. Type of series: cell-based. As to conditions: Porcine epidemic diarrhea virus, Vero, 36 h.
The nature of series [6]: in vitro. As to conditions: human. The source holds these as a separate data set.
Details of series [7]: species or system SD rats. As to conditions: male, Sprague-Dawley (SD), rat, in vivo. The protocol:
18 male SD rats were randomly divided into 6 groups, with 3 rats for each group. Before the experiment, they were fasted for 12 hours (not for the intravenous experiment group) and allowed to drink water. 4 hours after dosing, the animals were fed. Among them, 3 groups were intragastrically administered with 10 mg/kg of A9, A146 and A151, respectively, and the remaining 3 groups were intravenously administered with 2 mg/kg of A9, A146 and A151, respectively. The vehicle for administration was DMSO/EtOH/PEG300/0.9% NaCl (5/5/40/50, v/v/v/v).
5 min (intravenous only), 0.25, 0.5, 1.0, 2.0, 4.0, 6.0, 8.0 and 24 h post administration, 0.2 mL of blood sample was collected from jugular vein into EDTA-K2 tubes, and centrifuged at 11000 rpm for 5 min. The plasma was separated, and frozen in a refrigerator at −70° C. for testing. The operation was conducted in an ice water bath. The concentration of A9 in plasma was determined by LC-MS-MS, and the pharmacokinetic parameters were calculated.

For series [8], the system named is dengue fever virus (DENV). Kind of series: Dengue virus plaque reduction test in Vero cells. Type of series: cell-based. The settings on record: Dengue virus, read-out: DENV (Vero) 5 μM (inhibition rate), 5 μM, plaque reduction.
Series [9] relates to human coronavirus OC43 (HCoV OC43). The experiment in a line: Cytopathic effect (CPE) assay, HCoV OC43 in Huh7. The class given is cell-based. The settings on record: Betacoronavirus 1, OC43, Huh-7, Huh7 cells. The protocol: The inhibitory effects of compounds on the replication of respiratory syncytial virus (RSV), human coronavirus OC43, influenza A virus, Zika virus (Zika) were tested using cytopathic effect (CPE) assay.
Experimental cells were inoculated in 96-well cell culture plate at a certain cell density, and cultured in an incubator (5% CO2, 37° C.) overnight. Compounds and viruses were added on the second day. […] Then cell viability of each well was detected using Cell Titer-Glo or CCK-8. […] The cytotoxicity test method was the same as the corresponding antiviral test method without virus infection.
The antiviral activity and cytotoxicity of the compounds are respectively indicated by the inhibition rate (%) of compounds on virus-induced cellular viral effects and cell viability (%). Calculating formulas are as follows:
Inhibition rate (%)=(reading value of test well—average value of virus control)/(average value of cell control—average value of virus control)×100;
EC50 and CC50 value are calculated by Prism software, and the inhibition curve fitting method is “log (inhibitor) vs. response—Variable slope”.

For a further series, the system named is Zika virus (Zika). The experiment in a line: Cytopathic effect (CPE) assay, Zika virus in Huh7. The class given is cell-based. The settings on record: Huh-7, Huh7 cells, CPE.
Series [10] can be described thus: Tissue distribution test in mice. The class given is in vivo, CD-1 mice. As to conditions: oral administration of A151, liver, kidney, lung, heart. How it is done: 16 male CD-1 mice were randomly divided into 4 groups, with 4 mice for each group.
Before the experiment, they were fasted for 12 hours and allowed to drink water. 2 hours after dosing, the animals were fed. The 4 groups were given 200 mg/kg A151 (dissolved in DMSO-enthanol-PEG300-saline, volume ratio: 5/5/40/50) by intragastric administration. At 1 h, 2 h, 4 h and 8 h after administration, the mice were anesthetized; blood sample was collected by heart puncture, and tissues of liver, kidney, heart and lung were harvested. The distribution profile of A9 in the tissues was determined by HPLC-MS/MS.

pEC50: −log10 of the molar value. Like-named read-outs stand apart in the source and are kept apart here. Where only a bound is given, the exact number is not on record here.

With `[2H]c1cc([C@]2(C#N)O[C@H](CO)[C@@H](O)[C@H]2O)n2ncnc(N)c12` [Compound A9], the CC50 in “in vitro [1]” and in “in vitro [6]” was > 10000 nM throughout. The compound further gave a half-life in “in vivo” of 1 h. For the same compound, the total exposure AUC(0-inf) in [2] came to 6010 ng·h/mL. In addition, the AUC(0-t) in series [2] is 5980 ng·h/mL. Also, the peak level in series [2] (Cmax) was 3230 ng/mL. For the same compound, the time of peak concentration (Tmax) in series [2] came out at 1.2 h. For the same compound, the pEC50 was 6.25 in series [3]; 6.36 in [4]; 7.80 in [5]; 5.75 in series [9]; 4.92 in the series on Zika virus (Zika). Besides, the values for the inhibition at 5 µM in series [4] and in series [8] were 99% and 100%, respectively. Also, the “F % (oral bioavailability)” value in [7] worked out at 21.3%. Also, the “T1/2” value in series [7] (iv, 2 mg/kg) is 2.3 h; in [7] (po, 10 mg/kg), 3.4 h.
Turning to `[2H]c1cc([C@]2(C#N)O[C@H](COC(=O)C(C)C)[C@@H](OC(=O)C(C)C)[C@H]2OC(=O)C(C)C)n2ncnc(N)c12` [Compound A151], the “tissue distribution of metabolite A9 (in words)” value in series [10] is recorded as “evenly distributed, without accumulation in liver or kidney”. Moreover, in “in vitro [1]”, the CC50 was > 10000 nM. The negative logarithm of the EC50 (pEC50) in [3] was 6.20; in series [4], 6.51; in series [5] it was > 7.00; in series [9] it was 5.70. Further, the inhibition at 5 µM in [4] was determined as 99%. Also, the “F % (oral bioavailability)” value in series [7] was 56.7%. Also, the “T1/2” value in series [7] (iv, 2 mg/kg) turned out to be 1.5 h; in series [7] (po, 10 mg/kg), 2.6 h.

Values taken from patent US20240140975A1, “ANTIVIRAL APPLICATION OF NUCLEOSIDE ANALOG OR COMBINATION FORMULATION CONTAINING NUCLEOSIDE ANALOG” (priority 2020, published 2024).
